Among the data in ChEMBL document CHEMBL1135236, “Synthesis of iodinated 3beta-aryltropanes with selective binding to either the dopamine or serotonin transporters” (Bioorg Med Chem Lett, 2002) are Ratio, Ki and IC50 values, retold here.

Structures are written as SMILES.

For assay [1], the target named is Sodium-dependent serotonin transporter (Rattus norvegicus) (UniProt P31652). Description: Ratio of serotonin transporter potency to that of dopamine transporter potency.
The target of assay [2] is Sodium-dependent serotonin transporter (Rattus norvegicus, UniProt P31652). The assay can be described thus: Tested for the ability to displace [3H]- paroxetine binding in rat frontal cortex membrane against Serotonin transporter. It counts as cell membranes.
Sodium-dependent serotonin transporter, sequence (P31652 whole entry): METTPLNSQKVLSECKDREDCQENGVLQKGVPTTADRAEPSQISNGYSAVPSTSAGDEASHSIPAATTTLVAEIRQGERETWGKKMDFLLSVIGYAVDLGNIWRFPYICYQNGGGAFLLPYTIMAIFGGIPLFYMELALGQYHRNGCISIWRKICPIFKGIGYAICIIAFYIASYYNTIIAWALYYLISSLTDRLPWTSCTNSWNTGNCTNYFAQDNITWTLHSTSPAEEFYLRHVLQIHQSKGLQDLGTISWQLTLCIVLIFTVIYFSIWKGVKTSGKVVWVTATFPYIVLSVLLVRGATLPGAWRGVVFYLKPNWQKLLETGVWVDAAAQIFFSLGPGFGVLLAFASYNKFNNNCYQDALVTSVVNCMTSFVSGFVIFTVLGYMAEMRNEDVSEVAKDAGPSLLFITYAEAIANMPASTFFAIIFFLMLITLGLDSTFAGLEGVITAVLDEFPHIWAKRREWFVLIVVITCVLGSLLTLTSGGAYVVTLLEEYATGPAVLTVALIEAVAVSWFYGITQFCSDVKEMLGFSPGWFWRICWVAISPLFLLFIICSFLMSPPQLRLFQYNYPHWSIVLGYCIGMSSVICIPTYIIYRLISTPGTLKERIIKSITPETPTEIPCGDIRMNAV
Assay [3] addresses Sodium-dependent dopamine transporter (Rattus norvegicus, UniProt P23977). Description: Tested for the ability to displace [125I]- RTI-55 binding in rat striatal membrane against dopamine transporter. It counts as cell membranes, Striatum.

Sodium-dependent serotonin transporter (Rattus norvegicus), sequence (P31652 whole entry): as above
Sodium-dependent dopamine transporter, sequence (P23977 whole entry): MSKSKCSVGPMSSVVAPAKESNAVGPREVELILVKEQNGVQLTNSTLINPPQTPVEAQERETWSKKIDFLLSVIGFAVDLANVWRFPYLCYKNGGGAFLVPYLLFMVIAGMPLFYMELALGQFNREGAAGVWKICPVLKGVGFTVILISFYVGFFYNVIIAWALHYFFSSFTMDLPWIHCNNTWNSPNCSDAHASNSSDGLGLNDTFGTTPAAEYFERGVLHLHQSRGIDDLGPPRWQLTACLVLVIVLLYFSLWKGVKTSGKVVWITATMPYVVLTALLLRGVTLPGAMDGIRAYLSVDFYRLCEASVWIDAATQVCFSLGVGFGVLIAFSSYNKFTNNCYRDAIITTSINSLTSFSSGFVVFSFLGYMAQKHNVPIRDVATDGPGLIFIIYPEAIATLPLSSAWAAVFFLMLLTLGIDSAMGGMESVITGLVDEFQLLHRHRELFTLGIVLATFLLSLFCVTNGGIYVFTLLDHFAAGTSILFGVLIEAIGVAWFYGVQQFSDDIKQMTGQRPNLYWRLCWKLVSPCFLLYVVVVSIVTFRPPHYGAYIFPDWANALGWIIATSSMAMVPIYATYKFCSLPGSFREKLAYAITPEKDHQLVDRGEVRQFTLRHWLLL

As a reminder, the Ki is a dissociation constant, usually derived from enzyme kinetics or from competition with a known ligand. The low end stands for tighter binding, the high end for weaker binding. The term IC50 denotes the concentration at which inhibition is half-maximal. A higher IC50 goes with lower potency. With `CCC(=O)C1C(c2cccc(I)c2)CC2CCC1N2C` (centres undefined), the Ratio in assay [1] was found to be 2.9. The compound also came in with a Ki in assay [2] of 19.7 nM. The IC50 in assay [3] was determined as 56.5 nM.

With `CCC(=O)C1C2CCC(CC1c1ccc(/C=C(\C)I)cc1)N2` (centres undefined), the Ratio in assay [1] is 710. Further, the Ki in assay [2] came out at 0.57 nM. The compound further yielded an IC50 in assay [3] of 401 nM.

`CCC(=O)C1C2CCC(CC1c1ccc(/C=C/I)cc1)N2` (centres undefined): in assay [1], the Ratio stood at 83. Further, the Ki in assay [2] amounted to 0.62 nM. This compound yielded an IC50 in assay [3] of 51.3 nM.

For `CCC(=O)C1C(c2ccc(-c3cccn3C)cc2)CC2CCC1N2C/C=C/I` (centres undefined), in assay [1], the Ratio came out at 270. In assay [2], this compound showed a Ki of 2.82 nM. In assay [3], this compound yielded a half-inhibitory concentration (IC50) of 753 nM.

Consider `CCC(=O)C1C(c2ccc(I)c(F)c2)CC2CCC1N2C` (centres undefined), for which the Ratio in assay [1] stood at 0.041. Moreover, the inhibition constant Ki in assay [2] worked out at 9.07 nM. The compound also had an IC50 in assay [3] of 0.38 nM.

With `CCC(=O)C1C(c2ccc(I)c(Cl)c2)CC2CCC1N2C` (centres undefined), in assay [1], the Ratio turned out to be 0.067. The compound also had a Ki in assay [2] of 1.14 nM. Also, the IC50 in assay [3] turned out to be 0.077 nM.

In the case of `CCC(=O)C1C2CCC(CC1c1ccc(I)c(Cl)c1)N2` (centres undefined), the Ratio in assay [1] was 0.079. Further, the Ki in assay [2] was 1.08 nM. Further, in assay [3], the 50% inhibitory concentration (IC50) was determined as 0.085 nM.

For `CCC(=O)C1C(c2ccc(I)cc2)CC2CCC1N2C` (centres undefined), the Ratio in assay [1] worked out at 0.9. For the same compound, in assay [2], the affinity, expressed as Ki, was 1.88 nM. Besides, the IC50 in assay [3] was 1.69 nM.

Regarding `CCC(=O)C1C(c2ccc(-c3cccn3C)cc2)CC2CCC1N2C/C=C\I` (centres undefined), in assay [1], the Ratio was 86. In assay [2], this compound came in with a Ki of 13.1 nM. This compound gave an IC50 in assay [3] of 1120 nM.

For the compound `Cc1ccc([C@H]2CC3CCC([C@H]2C(=O)C(C/C=C/I)C/C=C/I)N3C)cc1` (some centres undefined), the Ki in assay [2] was more than 1100 nM. This compound also displayed an IC50 in assay [3] of 47.2 nM.

Regarding `CCC(=O)C1C2CCC(CC1c1ccc(/C=C(/C)I)cc1)N2` (centres undefined), the Ratio in assay [1] was 510. In addition, in assay [2], affinity was put at a Ki of 0.13 nM. In addition, in assay [3], the IC50 turned out to be 66.5 nM.

For the compound `CCC(=O)C1C2CCC(CC1c1ccc(I)cc1)N2` (centres undefined), the Ratio in assay [1] came to 0.9. In addition, the Ki in assay [2] is 2.44 nM. The same compound had an IC50 in assay [3] of 2.2 nM.

As to `CCC(=O)C1C2CCC(CC1c1ccc(I)c(F)c1)N2` (centres undefined), the Ratio in assay [1] amounted to 0.15. Besides, in assay [2], the affinity corresponds to a Ki of 7.26 nM. For the same compound, in assay [3], the IC50 turned out to be 1.08 nM.

As for `CCC(=O)C1C2CCC(CC1c1cccc(I)c1)N2` (centres undefined), the Ratio in assay [1] turned out to be 1.3. The compound also came in with a Ki in assay [2] of 15.7 nM. Moreover, the IC50 in assay [3] came to 19.8 nM.

`Cc1ccc(C2CC3CCC(C2C(=O)CC/C=C/I)N3C)cc1` (centres undefined): in assay [1], the Ratio came out at 0.26. In assay [2], this compound came in with a Ki of 50.8 nM. Moreover, in assay [3], the IC50 was determined as 13.3 nM.
